From ChEMBL document CHEMBL1268825, “Inhibitory activity of four demethoxy fluorinated anthracycline analogs against five human-tumor cell lines” (2010)
Converted amounts (≈) assume the structure as drawn. The source made the active and inactive calls. The rule behind the calls is not given here.

What was measured:
Assay type in all cases: functional
U-251 = assay: Cytotoxicity against human U251 cells after 24 hrs by SRB assay; conditions: for EC50: U-251, 24 h, read-out: ED50 (the source's name)
A549 = assay: Cytotoxicity against human A549 cells after 24 hrs by SRB assay; conditions: A549, 24 h, read-out: ED50 (the source's name)
HT-29 = assay: Cytotoxicity against human HT-29 cells after 24 hrs by SRB assay; conditions: HT-29, 24 h, read-out: ED50 (the source's name)
MCF7 = assay: Cytotoxicity against human MCF7 cells after 24 hrs by SRB assay; conditions: MCF7, 24 h, read-out: ED50 (the source's name)
[1] = (§1) Cytotoxicity against human RPMI cells after 24 hrs by SRB assay; conditions: read-out: ED50 (the source's name)
RPMI = assay: as §1

For `C[C@@H]1O[C@@H](O[C@H]2C[C@](O)(C(=O)CO)Cc3c(O)c4c(c(O)c32)C(=O)c2ccccc2C4=O)[C@H](F)[C@H](O)[C@@H]1O`, the EC50 (U-251) was 0.02 µg/mL (≈ 0.0376 µM), the EC50 (A549) was 0.008 µg/mL (≈ 0.015 µM) and the EC50 (HT-29) was over 0.001 µg/mL. The EC50 (MCF7) was 0.02 µg/mL (≈ 0.0376 µM) and the EC50 [1] was 0.02 µg/mL (≈ 0.0376 µM).

With `CC(=O)[C@]1(O)Cc2c(O)c3c(c(O)c2[C@@H](O[C@@H]2O[C@@H](C)[C@@H](O)[C@@H](O)[C@H]2F)C1)C(=O)c1ccccc1C3=O` the EC50 (U-251) was 0.04 µg/mL (≈ 0.0774 µM), the EC50 (A549) was 0.008 µg/mL (≈ 0.0155 µM) and the EC50 (MCF7) was 0.03 µg/mL (≈ 0.0581 µM). The EC50 [1] was 0.03 µg/mL (≈ 0.0581 µM).

In the case of `COc1cccc2c1C(=O)c1c(O)c3c(c(O)c1C2=O)C[C@@](O)(C(=O)CO)C[C@@H]3O[C@H]1C[C@H](N)[C@H](O)[C@H](C)O1` [DOXORUBICIN], the EC50 (U-251) is reported as 0.02 µg/mL (≈ 0.0368 µM), the EC50 (A549) is reported as 0.03 µg/mL (≈ 0.0552 µM) and the EC50 (MCF7) is reported as 0.03 µg/mL (≈ 0.0552 µM). It also gave an EC50 [1] of 0.02 µg/mL (≈ 0.0368 µM).

In the case of `C[C@@H]1O[C@@H](O[C@H]2C[C@](O)(C(=O)CBr)Cc3c(O)c4c(c(O)c32)C(=O)c2ccccc2C4=O)[C@H](F)[C@H](O)[C@@H]1O`, the ED50 (U-251) is reported as “inactive”, the EC50 (A549) is reported as 0.6 µg/mL (≈ 1.01 µM) and the EC50 (MCF7) is reported as 0.4 µg/mL (≈ 0.672 µM). For the same compound, the ED50 (RPMI) was “inactive”.

For `CC(=O)O[C@H]1[C@@H](F)[C@H](O[C@H]2C[C@](O)(C(C)=O)Cc3c(O)c4c(c(O)c32)C(=O)c2ccccc2C4=O)O[C@@H](C)[C@H]1OC(C)=O`, the EC50 (U-251) was 0.1 µg/mL (≈ 0.167 µM), the EC50 (A549) was 0.07 µg/mL (≈ 0.117 µM) and the EC50 (HT-29) was 0.001 µg/mL (≈ 0.00167 µM). The EC50 (MCF7) was 0.06 µg/mL (≈ 0.0999 µM) and the EC50 [1] was 0.05 µg/mL (≈ 0.0833 µM).
